Read-outs that look alike come from different tables or passages of the source. Positions of bridges follow the written chain, without caps; N, C: chain ends. Non-standard residues stand in square brackets, D forms with d. Residues, ends and D or L forms follow the SMILES beside them. *: point of attachment. DOTA = O=C(O)CN1CCN(CC(=O)O)CCN(CC(=O)*)CCN(CC(=O)O)CC1; Cha = N[C@@H](CC1CCCCC1)C(=O)O
Assays:
uPAR•uPA interaction = biological target: T1, uPAR•uPA interaction (Homo sapiens, UniProt Q03405); assay: SPR competition assay of the uPAR•uPA interaction; type: binding; details: competition of uPAR•uPA interaction, 2 nM uPAR, 20 °C, n = 3
T1 construct: Recombinant human uPAR^1–283 was expressed; made in house; host or cells: Drosophila melanogaster S2 cells
T1 sequence (Q03405 23-305): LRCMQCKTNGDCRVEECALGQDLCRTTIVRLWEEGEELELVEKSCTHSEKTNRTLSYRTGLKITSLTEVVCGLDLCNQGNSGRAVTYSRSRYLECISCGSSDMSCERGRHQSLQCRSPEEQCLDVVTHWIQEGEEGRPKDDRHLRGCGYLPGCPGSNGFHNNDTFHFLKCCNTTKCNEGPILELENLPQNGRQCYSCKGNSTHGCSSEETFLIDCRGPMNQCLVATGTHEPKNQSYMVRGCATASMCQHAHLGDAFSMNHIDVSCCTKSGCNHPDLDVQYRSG
Experimental: The IC50-values of antagonistic peptides on the uPAR•uPA interaction were determined with SPR using a Biacore T200™ or Biacore 3000™ instruments (Cytiva) essentially as described[4],[56],[77]. In brief, we immobilized high levels of pro-uPA^S356A (0.1 pmol pro-uPA/mm^2) on a CM5 sensor chip via amine coupling. The experiments were conducted by injecting 2 nM uPAR in presence of a threefold dilution series of a given antagonistic peptide for 300 s with a flow rate of 50 µL/min at 20 °C. The high immobilization levels result in binding conditions that are entirely controlled by mass transport limitations (MTL). Accordingly, the observed association rates (vobs) are directly proportional to the concentrations of binding-active uPAR in solution. To determine the IC50, we also measured a standard curve of uPAR binding (a twofold dilution series of 0.06 to 2 nM uPAR, linear due to MTL). The running buffer was 10 mM HEPES, 150 mM NaCl, 3 mM EDTA, and 0.05% (v/v) surfactant P-20 at pH 7.4, and the regeneration buffer was 0.1 M acetic acid in 0.5 M NaCl.

U87MG tumor-bearing mice = assay: Ex vivo biodistribution by gamma-counting of resected organs; type: in vivo; details: [64Cu]Cu-DOTA peptides, ex vivo at 46 h; also tumor to muscle or heart ratios
Experimental: After the last PET/CT scan at 46 h p.i., mice were euthanized by cervical dislocation under anesthesia, and tumor, blood, heart, lung, liver, spleen, kidney, and muscle tissue were resected. All tissues were weighted, and the radioactivity measured in a gamma counter (Wizard2, Perkin Elmer). Data was corrected for decay, tissue weight and injected amount of radioactivity.

[1] = system: uPAR expression in U87MG tumor-bearing mice; type: in vivo; details: [64Cu]Cu-DOTA peptides
Experimental: Five weeks old female NMRI nude mice were purchased from Janvier (Le Genest-Saint-Isle, France) and housed in groups to acclimatize for a week upon arrival with light/dark period of 12/12 h and under controlled environmental conditions (temperature: 20–22 °C, relative humidity: 55%). Access to fresh water and standard pellet diet was provided ad libitum. Human glioblastoma cancer cell line U87MG (ATCC, Manassas, USA) was cultured in Dulbecco’s modified eagle medium (DMEM) supplemented with 10% fetal bovine serum and 1% penicillin–streptomycin at 37 °C and 5% CO2. Cells were harvested by trypsinization at a confluence of 70–90%. Mice were anesthetized (3–4% sevoflurane in 65% N2 and 35% O2) and ~ 4 × 10^6 U87MG cells resuspended in 100 μL PBS were injected subcutaneously into the right flank. Tumors were allowed to grow for 20 days. Tumor sizes were monitored using caliper measurements (Volume = 0.5 x (Length x Width^2)).
Tumor-bearing mice (tumor volumes (mean ± SD) of 221 ± 105 mm^3) were grouped (n = 6 per group) and anesthetized (3–4% sevoflurane in 65% N2 and 35% O2) prior to imaging. The four different [^64Cu]Cu–DOTA conjugated peptides were administered via tail vein injections of 5.4 ± 0.4 MBq corresponding to 118 ± 7 pmol (1b), 111 ± 4 pmol (8b), 92 ± 3 pmol (9b), and 75 ± 4 pmol (11b) (mean ± SD). Whole-body imaging consisting of a CT acquisition followed by a static PET acquisition was performed on an Inveon® small animal imaging system (Siemens Medical Systems, Malvern, PA, USA). PET/CT imaging was performed 1 h, 22 h, and 46 h post-injection (p.i.) of tracer with a 5 min, 10 min and 15 min PET scan, respectively. During scans the animals were placed on a heated bedding system to keep the body temperature stable. The PET acquisition was performed with an energy window of 350–650 keV and a time resolution of 6 ns, and data was corrected for dead time and decay. The CT scan consisted of 360 projections, with a tube voltage of 65 kV, a tube current of 500 μA and an exposure time of 400 ms per projection. Sinograms from PET scans were reconstructed using a 3-dimensional maximum a posteriori algorithm with correction for scatter and attenuation (CT-based). PET and CT images were co-registered and analyzed using Inveon Research Workplace software (Siemens Medical Solutions). The mean percentage of injected dose per grams (%ID/g) in different tissues was extracted by manually creating regions of interest (ROI) on fused PET/CT images.

uPAR [2] = biological target: T2, uPAR (Homo sapiens, UniProt Q03405); assay: SPR real-time binding kinetics, peptides in solution and immobilised uPAR
T2 construct: Recombinant human uPAR^1–283 was expressed; made in house; host or cells: Drosophila melanogaster S2 cells
T2 sequence (Q03405 23-305): as above
Experimental: The real-time binding kinetics of uPAR•peptide interactions were measured with SPR using a Biacore T200™(Cytiva); essentially as described in[56],[77]. In brief, uPAR was covalently immobilised on a CM5 sensor chip via amine coupling resulting in a surface density of 1157–1581 RU (~ 33–44 fmol/mm^2). The binding kinetics for the peptides to immobilised uPAR were measured using a single cycle protocol. In this setup, peptides were injected as five serial two-fold dilutions with a contact time of 200 s. After the last analyte injection, the dissociation time was set to 1000 s. The sensor chip was regenerated with two consecutive injections of 0.1 M acetic acid in 0.5 M NaCl. All experiments were conducted at 20 °C with a flow rate of 50 µL/min in 10 mM HEPES, 150 mM NaCl, 3 mM EDTA, and 0.05% (v/v) surfactant P-20 at pH 7.4. The kinetic rate constants (kon and koff) were determined by non-linear regression fitting of the curves to the simple bimolecular interaction model (BiacoreT200 Evaluation™ 3.0 software).

uPAR [3] = biological target: T2, uPAR; assay: Nano-DSF thermal stability of uPAR•peptide complexes
Experimental: The thermal stability of the uPAR•peptide complexes was analyzed with Nano-DSF using a Prometheus NT.48™ (Nanotemper). uPAR (15 µM) was mixed with twofold excess of peptide (30 µM) in PBS pH 7.4 and incubated for 15 min at RT to ensure complex formation. Samples containing either 15 µM uPAR or 30 µM of each peptide were included as controls. The samples were loaded into standard capillaries and in triplicates. To unfold the proteins, the samples were exposed to an increasing temperature gradient from 20 to 95 °C with a ramping rate of 1 °C/min. The excitation power was set to 50% (Ex.280 nm) and the fluorescence emission collected at 330 nm and 350 nm. The melting temperatures of the complexes were determined in the PR.ThermControl software (Nanotemper) from the first derivative of the fluorescence ratio (350 nm/330 nm).

[4] = [63Cu]-DOTA labelled peptides, single-cycle SPR

How did the IC50 (uPAR•uPA interaction) turn out when `CC(C)C[C@@H]1NC(=O)[C@H](Cc2ccc(O)cc2)NC(=O)[C@H](NC(=O)[C@@H](CO)NC(=O)[C@H](Cc2ccccc2)NC(=O)[C@H](CC2CCCCC2)NC(=O)[C@H](CC(=O)O)NC(=O)CN2CCN(CC(=O)O)CCN(CC(=O)O)CCN(CC(=O)O)CC2)CSSC[C@@H](C(N)=O)NC(=O)[C@H](Cc2c[nH]c3ccccc23)NC1=O` [9b] ({DOTA}-D[Cha]F[dS][dC]YLWC-NH2; disulfide 5-9) was run?
The IC50 was 7.3 ± 0.2 nM.

And the “difference in activity of resected tumors compared to (8b)” value (U87MG tumor-bearing mice)?
Its value is “statistically significant”.

What about the “tumor uptake and tumor-to-organ ratios compared to linear control (8b)” value [1] of the same molecule?
The value was “significant albeit weak improvement”.

What about the “difference in tumor max compared to (8b)” value ([1]; PET at 22 h) of the same molecule?
Its value is “statistically significant”.

What about the “tracer uptake compared to (8b)” value ([1]; all PET scans (1 h, 22 h, 46 h)) of the same molecule?
Its value is “small but consistently higher uptake”.

And the Kd (uPAR [2]; [4])?
Its Kd is 22 nM.

What about the koff (uPAR [2]; [4]) of the same molecule?
Its koff is 0.00659 ± 2e-05 s⁻¹.

And the kon (uPAR [2]; [4])?
Its kon is 2.99 ± 0.04 105 M-1 s-1.

And the koff (uPAR [2]; single cycle SPR, immobilised uPAR, 20 °C)?
The koff was 0.002744 ± 4e-06 s⁻¹.

And the Kd (uPAR [2]; single cycle SPR, immobilised uPAR, 20 °C, 1:1 model)?
Its Kd is 4.26 nM.

What about the kon (uPAR [2]; single cycle SPR, immobilised uPAR, 20 °C, read-out: kon) of the same molecule?
Its kon is 644000 ± 2000 M⁻¹ s⁻¹.

What about the “Tm (apparent melting temperature of uPAR•peptide complex)” value (uPAR [3]; 15 µM uPAR, 30 µM peptide, PBS pH 7.4, n = 3) of the same molecule?
Its value is at least 70 °C.

What about the “increase in apparent Tm” value (uPAR [3]; DOTA-conjugated peptides, compared to (1b)) of the same molecule?
The value was “approximately 11 °C”.

— paper PMC10567728, “Targeted imaging of uPAR expression in vivo with cyclic AE105 variants” (Scientific Reports, 2023)
